Holding throughout (assay type): physicochemical
Data set [1] can be described thus: water absorption / hygroscopicity.
A short description of data set [2]: storage in humidity chamber, polymorph conversion. An excerpt:
Crystalline form B in an open glas container is stored in a humidity chamber at relative humidity of 35% and room temperature. Samples were taken prior to storage and after 4, 14, 19 and 21 days of storage under these conditions.
Crystalline form B in an open glas container is stored in a humidity chamber at relative humidity of 60% and room temperature. Samples were taken prior to storage and after 7, 17 and 22 days of storage under these conditions.
Crystalline form B in an open glas container is stored in a humidity chamber at relative humidity of 75% and room temperature. Samples were taken prior to storage and after 6, 13 and 23 days of storage under these conditions.

The nature of data set [3]: variable temperature X-ray powder diffraction experiment. The note with it: 90° C., after half an hour. The procedure: Variable temperature Powder Diffraction Data Collection was carried out on a Shimadzu XRD-6000X-ray powder diffractometer using Cu Kα radiation. The instrument is equipped with a fine focus X-ray tube. The tube voltage and amperage were set to 40 kV and 40 mA, respectively. The divergence and scattering slits were set at 1° and the receiving slit was set at 0.15 mm. Diffracted radiation was detected by a NaI scintillation detector. A theta-two theta continuous scan at 3°/min (0.4 sec/0.02° step) from 2,5 to 40° 2 θ was used. A silicon standard was analyzed each day to check the instrument alignment. The instrument was equipped with an Anton Paar HTK 1200 high temperature stage and a ceramic sample holder

Data set [4] in a line: solubility in water.
The nature of data set [5]: stability in organic media. The settings on record: chloroform, dioxane, ethyl acetate, hexane, tetrahydrofuran, toluene; room temperature or higher (e.g. up to 40° C.).

The record followed here is patent US8309610B2, “Crystalline forms of (1RS,3RS,6RS)-6-dimethylaminomethyl-1-(3-methoxyphenyl)cyclohexane-1,3-diol hydrochloride” (priority 2005, dated 2012).

Counter-ions that a name gives are not always drawn.

With `COc1cccc([C@@]2(O)C[C@H](O)CC[C@@H]2CN(C)C)c1` (racemic) [form C, (1RS,3RS,6RS)-6-Dimethylaminomethyl-1-(3-methoxy-phenyl)cyclohexane-1,3-diol hydrochloride], the hygroscopicity entry in data set [1] (compared with all known polymorphic forms) is “lowest hygroscopicity of all known polymorphic forms”.
For `COc1cccc([C@@]2(O)C[C@H](O)CC[C@@H]2CN(C)C)c1` (racemic) [form B, (1RS,3RS,6RS)-6-Dimethylaminomethyl-1-(3-methoxy-phenyl)cyclohexane-1,3-diol hydrochloride], the “crystalline form found after storage” value in data set [2] is “crystalline form B only”. In addition, the “conversion to another polymorph under high humidity” value in data set [2] (high humidity) is listed as “not converted to another polymorph”. Also, in data set [3], the “solid form conversion on heating” value is listed as “converted to form E”.
Consider `COc1cccc([C@@]2(O)C[C@H](O)CC[C@@H]2CN(C)C)c1` (racemic) [form A, (1RS,3RS,6RS)-6-Dimethylaminomethyl-1-(3-methoxy-phenyl)cyclohexane-1,3-diol hydrochloride], for which the solubility in water result in data set [4] was “very high solubility in water”. In addition, in data set [1] (up to 60% relative humidity, room temperature, at least up to three weeks), the “resistance to water absorption” value is reported as “resistant to water absorption”. The “stability in organic media” value in data set [5] is “stable in organic media”.
